Test results taken from patent US12097177B2, “Therapeutic method for cat with chronic kidney disease” (Toray Industries, Inc., priority 2021, dated 2024).
Where two headings read alike, the source gives them in different places.

Experiments:
cats with CKD = test: Retrospective observation study: period before kidney death (serum creatinine higher than 10.0 mg/dL), BPS therapy vs No BPS therapy; format: in vivo, cat; conditions: for 3-year kidney survival rate: cats with CKD; for average period before kidney death: Kaplan-Meier
Method: Based on the drug prescription records, cats were divided into two groups: a BPS therapy group consisting of 73 cats; and a BPS therapy-free group consisting of 126 cats.
In Example 3, the periods before kidney death were compared and analyzed retrospectively. The timing of kidney death was determined with reference to the guidelines on acute kidney insufficiency from the International Renal Interest Society. On the basis of the statement such that “a patient may die within 5 to 10 days despite appropriate conservative therapy without kidney replacement therapy if serum creatinine is higher than 10.0 mg/dL,” specifically, kidney death was determined when serum creatinine of higher than 10.0 mg/dL was recorded in the serum creatinine test. By designating kidney death as the outcome, the start date of treatment as the point of origin for the cats in the BPS therapy group, and the start date of observation as the point of origin for the cats in the No BPS therapy group, the periods (months) before the outcome was observed were recorded. In analysis, the 3-year kidney survival rates (%) of the BPS therapy group and of the No BPS therapy group, the standard errors thereof, the 95% confidence intervals, and the comparison of the 3-year kidney survival rates (%) between the groups were calculated. […] Differences in the kidney survival rates were assessed by the log rank test, the Cochran-Mantel-Haenszel test, by setting significant level at a two-tailed P-value of <0.05.
Based on the drug prescription records, cats were divided into two groups: a BPS therapy group consisting of 37 cats; and a BPS therapy-free group consisting of 332 cats.
In Comparative Example 2, the periods before kidney death were compared and analyzed retrospectively. The timing of kidney death was determined with reference to the guidelines on acute kidney insufficiency from the International Renal Interest Society. On the basis of the statement such that “a patient may die within 5 to 10 days despite appropriate conservative therapy without kidney replacement therapy if serum creatinine is higher than 10.0 mg/dL,” specifically, kidney death was determined when serum creatinine of higher than 10.0 mg/dL was recorded in the serum creatinine test. By designating kidney death as the outcome, the start date of treatment as the point of origin for the cats in the BPS therapy group, and the start date of observation as the point of origin for the cats in the No BPS therapy group, the periods (months) before the outcome was observed were recorded. In analysis, the 3-year kidney survival rates (%) of the BPS therapy group and of the No BPS therapy group, the standard errors thereof, the 95% confidence intervals, and the comparison of the 3-year kidney survival rates (%) between the groups were calculated. […] Differences in the kidney survival rates were assessed by the log rank test, the Cochran-Mantel-Haenszel test, by setting significant level at a two-tailed P-value of <0.05.

[1] = test system: kidney of rat progressive glomerulonephritis; conditions: in vivo; cited from earlier work
[2] = test system: patient with chronic renal failure; conditions: BPS immediate release tablets; serum creatinine of 2.2 mg/dl or higher; cited from earlier work
[3] = test system: cats with chronic renal failure; conditions: cited from earlier work; for kidney function: 4 cats

Structure (SMILES): CC#CCC(C)[C@H](O)/C=C/[C@@H]1[C@H]2c3cccc(CCCC(=O)[O-])c3O[C@H]2C[C@H]1O.[Na+] (stereo partly drawn) [BPS, Beraprost sodium]
- 3-year kidney survival rate (cats with CKD; serum creatinine 1.6 to 2.8 mg/dL (stage 2)): 90.0%
- 3-year kidney survival rate (cats with CKD; serum creatinine 2.9 to 5.0 mg/dL (stage 3) or higher than 5.0 mg/dL (stage 4), 10.0 mg/dL or lower): 77.1%
- 3-year kidney survival rate of BPS therapy group relative to No BPS therapy group (cats with CKD; stage 2): 0.95 times
- average kidney survival period of BPS therapy group relative to No BPS therapy group (cats with CKD; stage 2): 0.97 times
- average period before kidney death (cats with CKD; stage 2): 40.8 months
- effect on kidney death (cats with CKD; stage 2 before initiation of administration): no effects of BPS administration to inhibit kidney death were observed
- 3-year kidney survival rate of BPS therapy group relative to No BPS therapy group (cats with CKD; stage 3 or 4): 1.20 times
- average kidney survival period of BPS therapy group relative to No BPS therapy group (cats with CKD; stage 3 or 4): 1.48 times
- average period before kidney death (cats with CKD; stage 3 or 4): 39.2 months
- effect on kidney death (cats with CKD; stage 3 or 4 before initiation of administration): effects of BPS administration to inhibit kidney death were observed
- pharmacological activity on renal microvascular network [1]: improving microvascular network failure of kidney tissue
- effects of BPS in chronic renal failure [2]: effects of BPS are not observed
- kidney function (serum creatinine, BUN, other indicators) and clinical symptoms ([3]; 150 μg twice daily for 6 months): an improvement in kidney function
- kidney function ([3]; serum creatinine 1.6 to 2.4 mg/dL (mild), 150 μg twice daily for 6 months): improved kidney function was observed in all of the 4 subject cats
- kidney function ([3]; serum creatinine 2.4 to 4.0 mg/dL (moderate), 150 μg twice daily for 6 months): improved kidney function was observed in the 2 subject cats, and retained kidney function was observed in other 2 cats
- kidney function ([3]; serum creatinine higher than 4.0 mg/dL (severe), 150 μg twice daily for 6 months): improved kidney function was observed in a cat, and temporary improvement, followed by impairment, was observed in other 3 cats
- uremia ([3]; cat with uremia caused by chronic renal failure (WO '668)): improved uremia
- recovery from chronic renal failure ([3]; mild chronic renal failure, serum creatinine 1.4 to 2.0 mg/dL, 150 μg twice daily for 6 months): recovery from chronic renal failure was observed in 2 cats
